From patent publication USRE45173E1, “Inhibitors of CYP 17” (Novartis AG, priority 2009, dated 2014)
Where a name gives a salt, the structure may show the parent alone. Read-outs that look alike come from different tables or passages of the source.

Biological target: recombinant human CYP17 enzyme (Homo sapiens (Human), UniProt P05093)
Test: Cytochrome P450, 17-20 lyase (CYP17-lyase) assay, tritiated acetic acid release from 17-α-hydroxy pregnenolone [21-3H]
Format: biochemical
From the text: Assay method was adopted from a published protocol with some modifications to suit our requirements (Dmitry N Grigoryev et al, Analytical Biochemistry, (1999) 267, 319-330). […] Chloroform extraction removes the radioactive steroids and acetic acid is taken into aqueous layer. The tritiated acetic acid released in the assay thus extracted is quantified to determine the enzyme activity. […] The purified cell membrane preparations were used as the source for Human CYP17 enzyme. […] O, Nijar, et al., J Med Chem, (1998) 41, 902-912). […] Km for this substrate was determined by monitoring the tritiated acetic acid release as a function of substrate concentration. […] For the Km determination, the data was fit to a hyperbolic equation (Graphpad Prism® software IV). […] (Dmitry N. Grigoryev et al, Analytical Biochemistry (1999) 267, 319-330) […] NADPH is used at a final concentration of 4.2 mM. Total reaction volume was made up to 50 μL with 50 mM Phosphate buffer pH 7.5. The reaction mixture was incubated at room temperature for 90 minutes with gentle shaking. The reaction was stopped by the addition of 100 μL of buffer. 500 μL of 5% freshly prepared activated charcoal was added to the solution and mixed well by vortexing. The samples were centrifuged at 17568×g for 5 minutes. (14000 rpm). The supernatant was carefully transferred to fresh tube and 1.3 mL of scintillation fluid was added, mixed by vortexing. The radioactivity was measured in a 1450 MicroBeta TriLux™ scintillation counter from Wallac-Perkin Elmer®, USA. The measurements were carried out in 2.0 mL Eppendorforf™ tubes. […] The amount of tritiated acetic acid released is proportional to the lyase activity. Percent lyase activity in presence of inhibitor was calculated using the formula given below. […] Enzyme reaction in presence of inhibitor. • Positive control: […] For IC50 determination, the % inhibition was plotted as a function of inhibitor concentration. The data was fitted to sigmoidal equation using Graphpad Prism® software IV to generate IC50 values.

[1] = human CYP17, substrate 0.25 μM, read-out: Lyase IC 50 Human/Rat (Human)
[2] = human CYP17, substrate 0.25 μM, read-out: Lyase IC 50 nM Human/Rat (Human)

Sequence of recombinant human CYP17 enzyme (P05093 whole entry): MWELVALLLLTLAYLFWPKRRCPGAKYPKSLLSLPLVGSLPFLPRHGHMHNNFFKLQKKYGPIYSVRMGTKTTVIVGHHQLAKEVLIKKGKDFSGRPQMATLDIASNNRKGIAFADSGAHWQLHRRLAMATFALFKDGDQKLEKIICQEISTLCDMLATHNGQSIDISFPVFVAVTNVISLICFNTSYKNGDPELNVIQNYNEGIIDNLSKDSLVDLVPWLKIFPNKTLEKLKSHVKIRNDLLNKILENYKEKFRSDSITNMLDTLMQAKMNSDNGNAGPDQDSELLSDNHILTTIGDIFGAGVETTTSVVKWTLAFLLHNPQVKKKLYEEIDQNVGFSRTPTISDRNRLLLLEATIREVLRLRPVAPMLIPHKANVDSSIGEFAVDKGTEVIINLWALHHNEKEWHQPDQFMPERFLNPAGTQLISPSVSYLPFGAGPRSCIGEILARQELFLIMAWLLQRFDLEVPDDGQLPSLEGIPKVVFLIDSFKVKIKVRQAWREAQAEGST

## O=C1N(c2ccc3ncsc3c2)CCN1c1cncc2nccn12 [Example 186A, 1-Benzothiazol-6-yl-3-imidazo[1,2-a]pyrazin-5-yl-imidazolidin-2-one]
[1]
  IC50: > 10000 nM

## Cc1ccncc1N1CCN(c2c[nH]c3ccccc23)C1=O [Example 107A, 1-(1H-Indol-3-yl)-3-(4-methyl-pyridin-3-yl)-imidazolidin-2-one]
[2]
  IC50: 334 nM

## Cc1ccncc1N1CCN(c2cccc(C#N)c2)C1=O [Example 106A, 3-[3-(4-Methyl-pyridin-3-yl)-2-oxo-imidazolidin-1-yl]-benzonitrile]
[2]
  IC50: 35 nM

## Cc1ccncc1N1CCN(c2ccc(C(F)(F)F)cc2)C1=O [Example 50A]
[2]
  IC50: 51 nM

## Cc1ccncc1N1CCN(c2ccc3c(ccn3C)c2)C1=O [Example 134A, 1-(1-Methyl-1H-indol-5-yl)-3-(4-methyl-pyridin-3-yl)-imidazolidin-2-one]
[2]
  IC50: 950 nM

## Cc1ccncc1N1CCN(c2ccc3c(N)n[nH]c3c2)C1=O [Example 123A, 1-(3-Amino-1H-indazol-6-yl)-3-(4-methyl-pyridin-3-yl)-imidazolidin-2-one]
[2]
  IC50: 10 nM

## Cc1ccncc1N1CCN(c2ccc3c(c2)C(C)(C)C(=O)N3CO)C1=O [Example 147A, 1-Hydroxymethyl-3,3-dimethyl-5-[3-(4-methyl-pyridin-3-yl)-2-oxo-imidazolidin-1-yl]-1,3-dihydro-indol-2-one]
[2]
  IC50: 346 nM

## Cc1ccncc1-n1ccn(-c2ccc3ncsc3c2)c1=O [Example 142A, 1-Benzothiazol-6-yl-3-(4-methyl-pyridin-3-yl)-1,3-dihydro-imidazol-2-one]
[2]
  IC50: 21 nM

## Cc1ccncc1N1CCN(c2ccc3c(c2)OC(F)(F)O3)C1=O [Example 64A, 1-(2,2-Difluoro-benzo[1,3]dioxol-5-yl)-3-(4-methyl-pyridin-3-yl)-imidazolidin-2-one]
[2]
  IC50: 35 nM

## Cc1ccncc1-n1ccn(-c2ccc3sccc3c2)c1=O [Example 139A, 1-Benzo[b]thiophen-5-yl-3-(4-methyl-pyridin-3-yl)-1,3-dihydro-imidazol-2-one]
[2]
  IC50: 83 nM

## CCc1cn(-c2ccc3ncsc3c2)c(=O)n1-c1cnccc1C [Example 168A, 1-Benzothiazol-6-yl-4-ethyl-3-(4-methyl-pyridin-3-yl)-1,3-dihydro-imidazol-2-one]
[2]
  IC50: 384 nM

## COc1cccc(N2CCN(c3cnccc3C)C2=O)c1 [Example 56A, 1-(3-Methoxy-phenyl)-3-(4-methyl-pyridin-3-yl)-imidazolidin-2-one]
[2]
  IC50: 25 nM

## Cc1ccncc1N1CCN(c2cc3c(Cl)nccc3s2)C1=O [Example 98A, 1-(4-chloro-thieno[3,2-c]pyridin-2-yl)-3-(4-methyl-pyridin-3-yl)-imidazolidin-2-one]
[2]
  IC50: 18 nM

## Cc1ccncc1N1CCN(c2ccc3c(c2)CCC3)C1=O [Example 138A, 1-Indan-5-yl-3-(4-methyl-pyridin-3-yl)-imidazolidin-2-one]
[2]
  IC50: 13 nM

## Cc1ccncc1N1CCN(c2cnc3ccccn23)C1=O [Example 119A, 1-Imidazo[1,2-a]pyridin-3-yl-3-(4-methyl-pyridin-3-yl)-imidazolidin-2-One]
[2]
  IC50: 3200 nM

## O=C1N(c2ccc3ncsc3c2)CCN1c1cnccc1C(F)(F)F [Example 128A, 1-Benzothiazol-6-yl-3-(4-trifluoromethyl-pyridin-3-yl)-imidazolidin-2-one]
[2]
  IC50: 44 nM

## CC(=O)C1(O)CCC2C3CC=C4CC(O)CCC4(C)C3CCC21C (stereo not drawn) [17-α-hydroxy pregnenolone [21-3H], reference compound]
Substrate varied from 0.03125 μM to 1 μM, hyperbolic fit, read-out: Km (Michaelis Menton constant) of the substrate
  Km: 250 nM

## Cc1ccncc1N1CCN(c2cnsc2)C1=O [Example 190A, 1-Isothiazol-4-yl-3-(4-methyl-pyridin-3-yl)-imidazolidin-2-one]
[2]
  IC50: 89 nM

## COc1nccc2sc(N3CCN(c4cnccc4C)C3=O)cc12 [Example 97A, 1-(4-Methoxy-thieno[3,2-c]pyridin-2-yl)-3-(4-methyl-pyridin-3-yl)-imidazolidin-2-one]
[2]
  IC50: 356 nM

## Cc1ccncc1N1CC(C)N(c2ccc3ncsc3c2)C1=O (centres unmarked) [Example 166A, 3-Benzothiazol-6-yl-4-methyl-1-(4-methyl-pyridin-3-yl)-imidazolidin-2-one]
[2]
  IC50: 32 nM

## Cc1ccncc1N1CCN(c2ccnc(N)c2)C1=O [Example 76A]
[2]
  IC50: 192 nM

## CN1CCC(COc2ccncc2N2CCN(c3ccc4ncsc4c3)C2=O)CC1 [Example 184A, 1-Benzothiazol-6-yl-3-[4-(1-methyl-piperidin-4-ylmethoxy)-pyridin-3-yl]-imidazolidin-2-one]
[1]
  IC50: > 10000 nM

## Cc1c(N2CCN(c3ccc4ncsc4c3)C2=O)cncc1C(F)(F)F [Example 153A, 1-(benzo[d]thiazol-6-yl)-3-(4-methyl-5-(trifluoromethyl)pyridin-3-yl)imidazolidin-2-one, Trifluoroacetic Acid Salt]
read-out: Lyase IC 50 nM Human/Rat (Human)
  IC50: 280 nM

## Cc1ccncc1N1CCN(c2ccc3scnc3c2)C1=O [Example 62A, 1-Benzothiazol-5-yl-3-(4-methyl-pyridin-3-yl)-imidazolidin-2-one]
[2]
  IC50: 426 nM

## CC(O)c1ccncc1N1CCN(c2ccc3ncsc3c2)C1=O (centres unmarked) [Example 158A, 1-(benzo[d]thiazol-6-yl)-3-(4-(1-hydroxyethyl)pyridin-3-yl)imidazolidin-2-one]
[2]
  IC50: 38 nM

## Cc1ccncc1N1CCN(c2ccc3c(C4CC4)n[nH]c3c2)C1=O [Example 161A, 1-(3-Cyclopropyl-1H-indazol-6-yl)-3-(4-methylpyridin-3-yl)imidazolidin-2-one]
[2]
  IC50: 82 nM

## Cc1ccc(N2CCN(c3cnccc3C)C2=O)s1 [Example 15A, 1-(4-Methyl-pyridin-3-yl)-3-(5-methyl-thiophen-2-yl)-imidazolidin-2-one]
[2]
  IC50: 10 nM

## O=C1N(c2ccc3ncsc3c2)CCN1c1cnccc1CN1CCCC1 [Example 176A, 1-Benzothiazol-6-yl-3-(4-pyrrolidin-1-ylmethyl-pyridin-3-yl)-imidazolidin-2-one]
[2]
  IC50: 39 nM

## Cc1ccncc1N1CCN(c2ccc(Cl)cc2)C1=O [Example 38A, 1-(4-Chloro-phenyl)-3-(4-methyl-pyridin-3-yl)-imidazolidin-2-one]
[2]
  IC50: 70 nM

## CC(C)(O)c1ccncc1N1CCN(c2ccc3ncsc3c2)C1=O [Example 156A, 1-(benzo[d]thiazol-6-yl)-3-(4-(2-hydroxypropan-2-yl)pyridin-3-yl)imidazolidin-2-one]
[1]
  IC50: > 10000 nM

## Cc1ccncc1N1CCN(c2cccc(Cl)c2F)C1=O [Example 86A, 1-(3-Chloro-2-fluoro-phenyl)-3-(4-methyl-pyridin-3-yl)-imidazolidin-2-one]
[2]
  IC50: 1200 nM

## COc1nccc2scc(N3CCN(c4cnccc4C)C3=O)c12 [Example 110A, 1-(4-Methoxy-thieno[3,2-c]pyridin-3-yl)-3-(4-methyl-pyridin-3-yl)-imidazolidin-2-one]
[1]
  IC50: > 10000 nM

## O=C1N(c2ccc3ncsc3c2)CCN1c1ccccn1 [Example 191A, 1-Benzothiazol-6-yl-3-pyridin-2-yl-imidazolidin-2-one]
[1]
  IC50: > 10000 nM

## Cc1ccncc1N1C(=O)N(c2ccc3ncsc3c2)CC1C (centres unmarked) [Example 167A, 1-Benzothiazol-6-yl-4-methyl-3-(4-methyl-pyridin-3-yl)-imidazolidin-2-one]
[2]
  IC50: 38 nM

## Cc1ccncc1N1CCN(c2ccc(Cl)c(F)c2)C1=O [Example 54A, 1-(4-Chloro-3-fluoro-phenyl)-3-(4-methyl-pyridin-3-yl)-imidazolidin-2-one]
[2]
  IC50: 15 nM
